Measured values reported in paper PMC4627800, “Allelic Variation of Cytochrome P450s Drives Resistance to Bednet Insecticides in a Major Malaria Vector” (PLoS Genetics, 2015).

Key:
[1] = molecular target: wild type recombinant MALCYP6P9b (wrMALCYP6P9b) (Anopheles funestus, UniProt B5AII7)
Procedure: (§1) Reactions were performed in triplicates both for +NADPH (experimental tubes) and–NADPH (negative control). K m and V max were established from the plot of substrate concentrations against the initial velocities and fitting of the data to the Michaelis-Menten module using the least squares non-linear regression, as described in the GraphPad Prism 6.03 Software (GraphPad Inc., La Jolla, CA, USA).
In addition, fluorescent probes were also screened to establish differences in the O-dealkylation activity of the mutants compared with the wild type enzyme. All in vitro and kinetic analyses were conducted as described above. However, as different mutants expressed with varying concentrations all assays were conducted within linear range, with the amount of enzyme and time which produced highest activities.

MALCYP6P9a = MALCYP6P9a (Anopheles funestus, UniProt B5AII6); assay: Pyrethroid depletion (metabolism) assay with recombinant enzyme; assay type: biochemical; conditions: 20μM insecticide, 1 hour, vs -NADPH
Procedure: (§2) Membrane expressing recombinant CYP6P9a/-b and AgCPR, and reconstituted cytochrome b5 were added to the side of the tube and pre-incubated for 5 minutes at 30°C, with shaking at 1,200 rpm to activate the membrane. 20μM of test insecticide was then added into the final volume of 0.2ml (~2.5% v/v methanol), and reaction started by vortexing at 1,200 rpm and 30°C for 1 hour. Reactions were quenched with 0.1ml ice-cold methanol and incubated for 5 more minutes. Tubes were then centrifuged at 16,000 rpm and 4°C for 15 minutes, and 150μl of supernatant transferred into HPLC vials for analysis. Reactions were carried out in triplicates with experimental samples (+NADPH) and negative controls (-NADPH). 100μl of sample was loaded onto an isocratic mobile phase (90:10 v/v methanol to water) with a flow rate of 1ml/min, monitoring wavelength of 226nm and peaks separated with a 250mm C18 column (Acclaim 120, Dionex) on Agilent 1260 Infinity at 23°C. Enzyme activity was calculated as percentage depletion (the difference in the amount of insecticide(s) remaining in the +NADPH tubes compared with the–NADPH) and a t-test used for statistical analysis.

UGANCYP6P9a [2] = molecular target: T1, UGANCYP6P9a (Anopheles funestus, UniProt B5AII6); assay: Steady-state kinetics of pyrethroid metabolism; assay type: biochemical
Procedure: as §1

UGANCYP6P9b = UGANCYP6P9b (Anopheles funestus, UniProt A0A0S1S7Y0); assay: Steady-state kinetics of pyrethroid metabolism; assay type: biochemical
Procedure: as §1

BENCYP6P9b = BENCYP6P9b (Anopheles funestus, UniProt A0A0S1S7Y0); assay: Steady-state kinetics of pyrethroid metabolism; assay type: biochemical
Procedure: as §1

MALCYP6P9b = MALCYP6P9b (Anopheles funestus, UniProt B5AII7); assay: Pyrethroid depletion (metabolism) assay with recombinant enzyme; assay type: biochemical; conditions: 20μM insecticide, 1 hour, vs -NADPH
Procedure: as §2

FANGCYP6P9a = FANGCYP6P9a (Anopheles funestus, UniProt K7Z0P3); assay: as above; assay type: biochemical; conditions: 20μM insecticide, 1 hour, vs -NADPH
Procedure: as §2

UGANCYP6P9a [3] = molecular target: T1, UGANCYP6P9a; assay: as above; assay type: biochemical; conditions: 20μM insecticide, 1 hour, vs -NADPH
Procedure: as §2

SMILES: CC1(C)C(C=C(Cl)Cl)C1C(=O)OCc1cccc(Oc2ccccc2)c1 (centres unmarked) [permethrin]
- Kcat [1]: 0.1317 ± 0.0138 s⁻¹
- Km [1]: 10.3 ± 2.38 µM
- Percentage depletion (MALCYP6P9a): 65.38±1.5 %
- Kcat (UGANCYP6P9a [2]): 0.122 ± 0.017 s⁻¹
- Kcat, fold higher than FANGCYP6P9a (UGANCYP6P9a [2]; UGANCYP6P9a vs FANGCYP6P9a): 2 fold
- catalytic efficiency, fold higher than FANGCYP6P9a (UGANCYP6P9a [2]; UGANCYP6P9a vs FANGCYP6P9a): 3 fold
- Kcat (UGANCYP6P9b): 8.61±3.40^b min^-1
- Kcat, fold higher than FANGCYP6P9b (UGANCYP6P9b; UGANCYP6P9b vs FANGCYP6P9b): 2 fold
- Kcat (BENCYP6P9b): 15.91±5.45^b min^-1
- Kcat, fold higher than FANGCYP6P9b (BENCYP6P9b; BENCYP6P9b vs FANGCYP6P9b): 4 fold
- Percentage depletion (MALCYP6P9b): more than 90%
- Percentage depletion (MALCYP6P9b; listed as Permethrin): 91.6±2.5 %
- Percentage depletion (FANGCYP6P9a): 29.0±1.42%
- Percentage depletion (UGANCYP6P9a [3]): 60.71±0.92 %
